The text below walks through data of patent US7361660B2, “Chemical compounds” (AstraZeneca AB, priority 2001, dated 2008).

For this assay, the system named is peripheral blood mononuclear cell (PBMC). Briefly: Inhibition of PMA/ionomycin-stimulated peripheral blood mononuclear cell proliferation. The following applies: human PBMC from a single donor, PMA 0.5 ng/ml and ionomycin 500 ng/ml, 72 hours, 3H-Thymidine incorporation; read-out: IA50 (the source's name). The assay is classed as cell-based. As to the method:
The ability of compounds which can inhibit PMA/ionomycin-stimulated peripheral blood mononuclear cell proliferation can be assessed, for example using the procedure set out below:
Inhibition of PMA/Ionomycin-Stimulated Peripheral Blood Mononuclear Cell Proliferation
The assay for Phorbol 12-myristate 13-Acetate (PMA)/ionomycin-stimulated peripheral blood mononuclear cell (PBMC) proliferation was performed in 96-well flat bottomed microtitre plates. Compounds were prepared as 10 mM stock solutions in dimethyl sulfoxide. A 50-fold dilution of this was prepared in RPMI culture medium and serial diutions were prepared from this solution. 10 μl of the 50-fold diluted stock, or dilutions of it, were added to the well to give concentrations in the assay starting at […] and going down. Into each well was placed 1×10^5 PBMC, prepared from human peripheral blood from a single donor, in RPMI1640 medium supplemented with 10% human serum, 2 mM glutamine and penicillin/streptomycin. PMA (0.5 ng/ml final concentration) and ionomycin (500 ng/ml final concentration) were added to these cells in supplemented RPMI1640 medium (as above) so that the final volume of the assay was 0.2 ml. […] The level of radioactivity incorporated by the cells was then determined and this is a measure of proliferation.
In general terms: Uptake of a labelled nucleoside into DNA is a usual measure of proliferation.

Molecules are shown by their SMILES.

Turning to `CON(C)C(=O)c1c(Cc2ccnc3ccccc23)sc2c1c(=O)n(C)c(=O)n2CC(C)C` [Example 2, 1,2,3,4-Tetrahydro-N-methoxy-N,3-dimethyl-1-(2-methylpropyl)-2,4-dioxo-6-(4-quinolinylmethyl)thieno[2,3-d]pyrimidine-5-carboxamide], the IC50 came out at 5.88 nM.

For the compound `CCCn1c(=O)n(C)c(=O)c2c(C(=O)N(C)OC)c(Cn3c(C)nc(Cl)c3Cl)sc21` [Example 7, 6-[4,5-Dichloro-2-methyl-1H-imidazol-1-ylmethyl]-1,2,3,4-tetrahydro-N-methoxy-N,3-dimethyl-2,4-dioxo-1-propyl-thieno[2,3-d]pyrimidine-5-carboxamide], the IC50 was 34.6 nM.
